“And” between values parts separate entries of the source, which are not always exact repeats. Equal values may be shown once.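 Interpolation was linear, between the two tested concentrations surrounding the appropriate level; five concentrations were tested over 48 hours in 96-well plates. Definition used: TGI = concentration required for complete inhibition of growth.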
How the values were obtained:
Assay in all cases: NCI tumour cell line growth inhibition, 48 h
[1] = test system: HOP-62 NSCLC
[2] = test system: SK-MEL-5 melanoma
[3] = test system: UO-31 renal
[4] = test system: SK-MEL-28 melanoma
[5] = test system: SN12C renal
[6] = test system: PC-3 prostate
[7] = test system: IGROV1 ovarian
[8] = test system: A549 NSCLC
[9] = test system: MDA-N
[10] = test system: CCRF-CEM leukemia
[11] = test system: UACC-62 melanoma
[12] = test system: CAKI-1 renal
[13] = test system: HCC-2998 colon
[14] = test system: SF-268 CNS
[15] = test system: UACC-257 melanoma
[16] = test system: SF-539 CNS
[17] = test system: MDA-MB-231 breast

Compound	TGI [1]	TGI [2]	TGI [3]	TGI [4]	TGI [5]	TGI [6]	TGI [7]	TGI [8]	TGI [9]	TGI [10]	TGI [11]	TGI [12]	TGI [13]	TGI [14]	TGI [15]	TGI [16]	TGI [17]
O=c1[nH]c2nc3ccccc3c(=O)n2/c1=C/c1ccccc1	> 100 µM	> 100 µM	> 100 µM	> 100 µM	83.8 µM	> 100 µM	> 100 µM	> 100 µM	78.5 µM	> 100 µM	> 100 µM	> 100 µM	> 100 µM	> 100 µM	> 100 µM	44.9 µM	> 100 µM
CN(C)c1ccc(N=C2N=C(Nc3ccccc3)C(=Nc3ccccc3)S2)cc1	> 100 µM	> 100 µM	–	> 100 µM	> 100 µM	> 100 µM	> 100 µM	> 100 µM	> 100 µM	> 100 µM	> 100 µM	> 100 µM	> 100 µM	> 100 µM	> 100 µM	> 100 µM	> 100 µM
O=C(CCN1CCCCC1)Nc1ccc2c(c1)C(=O)c1ccc(NC(=O)CCN3CCCCC3)cc1C2=O	6.67 µM	10.2 µM	32.8 µM	32.8 µM	18 µM	5.1 µM	13.2 µM	10.3 µM	3.03 µM	11.1 µM	34.7 µM	27.5 µM	13.5 µM	24.2 µM	30.5 µM	7.13 µM	3.6 µM
O=C1N[C@H]2C(=O)c3c(Br)sc(Br)c3[C@H]2O1	44.5 µM	27.7 µM	4.22 µM	10.7 µM	11.4 µM	16.4 µM	25.3 µM	40.4 µM	20.1 µM	3.63 µM	26.7 µM	9.81 µM	24.2 µM	14.2 µM	21.7 µM	32.1 µM	22.4 µM
COC(=O)C1(Cc2ccccc2)Cc2ccccc2C1O (stereo not given)	> 100 µM	> 100 µM	> 100 µM	> 100 µM	> 100 µM	> 100 µM	> 100 µM	> 100 µM	> 100 µM	> 100 µM	> 100 µM	> 100 µM	> 100 µM	> 100 µM	> 100 µM	> 100 µM	> 100 µM
O=C(N/C(=C\c1ccccc1)c1nc2ccccc2c(=O)o1)c1ccccc1	> 100 µM	> 100 µM	97.3 µM	> 100 µM	> 100 µM	> 100 µM	> 100 µM	> 100 µM	> 100 µM	> 100 µM	> 100 µM	> 100 µM	> 100 µM	> 78.2 µM	> 72.6 µM	> 100 µM	> 71.9 µM
Cc1cc(C)c2c(=O)n(CC(O)CN(Cc3ccccc3)CC(O)Cn3sc4nc(C)cc(C)c4c3=O)sc2n1 (stereo not given)	30.1 µM	30.1 µM	31.6 µM	74.1 µM	32.7 µM	30.4 µM	31.7 µM	40.7 µM	32.8 µM	> 100 µM	30.6 µM	33.4 µM	35.7 µM	30.9 µM	31.7 µM	32 µM	31.6 µM
CC(NNC(=O)c1ccncc1)c1ccccc1 (stereo not given)	> 100 µM	> 100 µM	> 100 µM	> 100 µM	> 100 µM	> 100 µM	> 100 µM	> 100 µM	> 100 µM	> 100 µM	> 100 µM	> 100 µM	> 100 µM	> 100 µM	> 100 µM	> 100 µM	> 100 µM
Cc1n[nH]c(=O)n1C1CC1	> 100 µM	> 100 µM	> 100 µM	> 100 µM	> 100 µM	> 100 µM	> 100 µM	> 100 µM	> 100 µM	> 100 µM	> 100 µM	> 100 µM	> 100 µM	> 100 µM	> 100 µM	> 100 µM	> 100 µM
N=S(c1ccccc1[N+](=O)[O-])c1ccccc1[N+](=O)[O-]	8.51 µM and 10.8 µM	3.83 µM and 8.22 µM	3.94 µM and 7.44 µM	10.9 µM and 11.3 µM	2.89 µM and 3.19 µM	2.98 µM	4.49 µM and 6.5 µM	9.72 µM and 15.6 µM	2.83 µM	7.79 µM and 2.7 µM	9.13 µM and 10.2 µM	4.19 µM and 12 µM	7.11 µM and 9.66 µM	11.9 µM and 5.94 µM	6.51 µM and 10.1 µM	6.9 µM and 9.89 µM	3.4 µM
CC(=O)Nc1ccc(S(=O)(=O)c2nnc(NC(C)=O)s2)cc1	> 100 µM	> 100 µM	> 100 µM	> 100 µM	> 100 µM	> 100 µM	> 100 µM	> 100 µM	> 100 µM	> 100 µM	> 100 µM	> 100 µM	> 100 µM	> 100 µM	> 100 µM	> 100 µM	> 100 µM
NC(=O)N/N=C\CC(O)(C(F)(F)Cl)C(F)(F)Cl	> 10 µM	> 10 µM	> 10 µM	> 10 µM	> 10 µM	> 10 µM	> 10 µM	> 10 µM	> 10 µM	> 10 µM	> 10 µM	> 10 µM	> 10 µM	> 10 µM	> 10 µM	> 10 µM	> 10 µM
COc1ccccc1NC1Oc2cc3c(cc2C(c2cc(OC)c(OC)c(OC)c2)C1C)OCO3 (stereo not given)	> 51.1 µM	16.8 µM	43.8 µM	> 100 µM	> 65.3 µM	> 100 µM	> 100 µM	> 100 µM	1.82 µM	> 50.3 µM	> 60.9 µM	17.1 µM	7.93 µM	> 46.2 µM	> 100 µM	5.24 µM	> 23.9 µM

Source: PubChem BioAssay (NCI)
